Measured values reported in the Kinase Knowledgebase extract (Sharma et al. 2016).

Target: MAPK14 (human) (UniProt Q16539)
Assay: Inhibition of MAPK14 Kinase Activity

Sequence of MAPK14 (human) (Q16539 whole entry, looked up): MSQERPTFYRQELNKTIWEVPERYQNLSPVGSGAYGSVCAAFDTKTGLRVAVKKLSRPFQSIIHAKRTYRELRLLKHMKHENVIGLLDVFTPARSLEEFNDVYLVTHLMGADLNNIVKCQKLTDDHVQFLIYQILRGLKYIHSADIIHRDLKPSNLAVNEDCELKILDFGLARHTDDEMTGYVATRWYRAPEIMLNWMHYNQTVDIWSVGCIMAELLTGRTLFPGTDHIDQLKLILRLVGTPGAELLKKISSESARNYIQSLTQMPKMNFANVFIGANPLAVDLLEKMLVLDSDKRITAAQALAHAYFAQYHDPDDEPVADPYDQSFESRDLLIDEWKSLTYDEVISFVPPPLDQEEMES

Row | IC50 [µM] | SMILES
1 | ≤ 10 | O=C1CC[C@@H](Cc2ccc(F)cc2F)CN1c1c(Cl)cccc1Cl
2 | ≤ 10 | Nc1ccc(Cl)c(N2CC(Cc3ccc(F)cc3F)CCC2=O)c1Cl (configuration not stated)
3 | ≤ 10 | COc1ccc(CC2CCC(=O)N(C3C(Cl)CCCC3Cl)C2)cc1 (configuration not stated)
4 | ≤ 10 | CC[C@@H]1C[C@@H](Cc2ccc(F)cc2F)CN(c2c(Cl)cccc2Cl)C1=O
5 | ≤ 10 | O=C1SCC(Cc2ccccc2F)CN1c1c(Cl)cccc1Cl (configuration not stated)
6 | ≤ 10 | O=C1CCC(Sc2cccc3ccccc23)CN1c1c(Cl)cccc1Cl (configuration not stated)
7 | ≤ 10 | Cc1ccccc1OC1CCC(=O)N(C2C(Cl)CCCC2Cl)C1 (configuration not stated)
8 | ≤ 10 | Cc1ccc(SC2CCC(=O)N(c3c(Cl)ccnc3Cl)C2)cc1 (configuration not stated)
9 | ≤ 10 | O=C1OCC(Cc2cc(Cl)cc(Cl)c2)CN1c1c(Cl)cccc1Cl (configuration not stated)
10 | ≤ 10 | Nc1cnc(Cl)c(N2CC(Oc3ccc(F)cc3F)CCC2=O)c1Cl (configuration not stated)
11 | ≤ 10 | O=C(Cc1ccccc1)Nc1cc(Cl)c(N2CC(Cc3ccc(F)cc3F)CSC2=O)c(Cl)c1 (configuration not stated)
12 | ≤ 10 | O=C1CCC(Oc2ccc(Cl)cc2)CN1c1c(Cl)cccc1Cl (configuration not stated)
13 | ≤ 10 | Cc1cccc(C)c1N1C[C@@H](NS(=O)(=O)c2ccc(F)cc2F)CCC1=O
14 | ≤ 10 | Cc1ccc(SC2CCC(=O)N(c3c(Cl)cncc3Cl)C2)c(C)c1 (configuration not stated)
15 | ≤ 10 | CC(=O)Nc1ccc(CC2CCC(=O)N(c3c(Cl)cccc3Cl)C2)cc1 (configuration not stated)
16 | ≤ 10 | O=C1CSC(Cc2ccccc2)CN1c1c(Cl)cccc1Cl (configuration not stated)
17 | ≤ 10 | O=C1CCC(Cc2ccc(F)cc2F)CN1c1c(Cl)ccc(CO)c1Cl (configuration not stated)
18 | ≤ 10 | O=C1OCC(Cc2ccc(F)cc2)CN1c1c(Cl)cccc1Cl (configuration not stated)
19 | ≤ 10 | Cc1cc(C)cc(SC2CCC(=O)N(c3c(Cl)csc3Cl)C2)c1 (configuration not stated)
20 | ≤ 10 | O=C1CCC(Sc2ccccc2Cl)CN1c1c(Cl)csc1Cl (configuration not stated)
21 | ≤ 10 | CNc1cc(Cl)c(N2CC(Cc3ccc(F)cc3F)CSC2=O)c(Cl)c1 (configuration not stated)
22 | ≤ 10 | CCN(CC)CC(=O)Nc1cc(Cl)c(N2CC(Cc3ccc(F)cc3F)CCC2=O)c(Cl)c1 (configuration not stated)
23 | ≤ 10 | O=C1CCC(Sc2cc(F)cc(F)c2)CN1c1c(Cl)cccc1Cl (configuration not stated)

Row | IC50 [µM] | SMILES
24 | ≤ 10 | Cc1cc(C#CCCCO)cc(C)c1N1CC(Cc2ccc(F)cc2F)CCC1=O (configuration not stated)
25 | ≤ 10 | CNC1CC(Cl)C(N2CC(Cc3ccc(F)cc3F)CCC2=O)C(Cl)C1 (configuration not stated)
26 | ≤ 10 | O=C(NCc1ccccc1CC1CCC(=O)N(c2c(Cl)cccc2Cl)C1)Nc1cccc(C(F)(F)F)c1 (configuration not stated)
27 | ≤ 10 | Cc1cc(NC(=O)OC(C)(C)C)cc(C)c1N1CC(Cc2ccc(F)cc2F)CNC1=O (configuration not stated)
28 | ≤ 10 | O=C1COC(Cc2ccc(F)cc2F)CN1c1c(Cl)ccc(CO)c1Cl (configuration not stated)
29 | ≤ 10 | Cc1ccc(CC2CCC(=O)N(c3c(Cl)csc3Cl)C2)cc1 (configuration not stated)
30 | ≤ 10 | O=C1CC/C(=C\c2ccc(F)cc2F)CN1c1c(Cl)cccc1Cl
31 | ≤ 10 | CN1CCC(Nc2cc(Cl)c(N3CC(Cc4ccc(F)cc4F)CCC3=O)c(Cl)c2)CC1 (configuration not stated)
32 | ≤ 10 | Cc1cccc(C)c1N1CC(Cc2ccccc2O)CCC1=O (configuration not stated)
33 | ≤ 10 | Cc1cc(C#CCCN2CCOCC2)cc(C)c1N1CC(Cc2ccc(F)cc2F)CCC1=O (configuration not stated)
34 | ≤ 10 | NC(=O)CNc1cc(Cl)c(N2CC(Cc3ccc(F)cc3F)CCC2=O)c(Cl)c1 (configuration not stated)
35 | ≤ 10 | NC1CCC(Cl)C(N2CC(Sc3ccc(F)cc3F)CCC2=O)C1Cl (configuration not stated)
36 | ≤ 10 | O=C1CSC(Cc2ccc(Cl)cc2)CN1c1c(Cl)cccc1Cl (configuration not stated)
37 | ≤ 10 | O=C1NCC(Cc2cccc3ccccc23)CN1c1c(Cl)cccc1Cl (configuration not stated)
38 | ≤ 10 | CCOC(=O)COc1ccccc1CC1CCC(=O)N(c2c(C)cccc2C)C1 (configuration not stated)
39 | ≤ 10 | O=C1CCC(C(O)c2cccs2)CN1c1c(Cl)cc(Br)cc1Cl (configuration not stated)
40 | ≤ 10 | CC(=O)Nc1ccc(Cl)c(N2CC(Cc3ccc(F)cc3F)OCC2=O)c1Cl (configuration not stated)
41 | ≤ 10 | O=C1CCC(Cc2ccc(F)cc2F)CN1c1c(Cl)csc1Cl (configuration not stated)
42 | ≤ 10 | O=C1CCC(C(O)c2ccc(F)cc2F)CN1c1c(Cl)cccc1Cl (configuration not stated)
43 | ≤ 10 | Cc1cc(C)cc(CC2CCC(=O)N(C3C(Cl)CCCC3Cl)C2)c1 (configuration not stated)
44 | ≤ 10 | Cc1cc(C(=O)NCCN(C)C)cc(C)c1N1CC(Cc2ccc(F)cc2F)CCC1=O (configuration not stated)
45 | ≤ 10 | Nc1cc(Cl)c(N2CC(Cc3ccccc3)CCC2=O)c(Cl)c1 (configuration not stated)
46 | ≤ 10 | O=C(CNc1cc(Cl)c(N2CC(Cc3ccc(F)cc3F)CCC2=O)c(Cl)c1)NO (configuration not stated)

Row | IC50 [µM] | SMILES
47 | ≤ 10 | Cc1cc(C#CCCN(C)C)cc(C)c1N1CC(Cc2ccc(F)cc2F)CCC1=O (configuration not stated)
48 | ≤ 10 | Cn1nc(C(C)(C)C)cc1NC(=O)CCc1ccccc1CC1CCC(=O)N(c2c(Cl)cccc2Cl)C1 (configuration not stated)
49 | ≤ 10 | O=C1OCC(Cc2ccc(F)cc2F)CN1c1c(Cl)cc(O)cc1Cl (configuration not stated)
50 | ≤ 10 | COc1ccc(OC2CCC(=O)N(c3c(Cl)csc3Cl)C2)cc1 (configuration not stated)
51 | ≤ 10 | COc1ccccc1CC1CNC(=O)N(c2c(Cl)cccc2Cl)C1 (configuration not stated)
52 | ≤ 10 | CN(C)CCNC(=O)CNc1cc(Cl)c(N2CC(Cc3ccc(F)cc3F)CCC2=O)c(Cl)c1 (configuration not stated)
53 | ≤ 10 | Cc1ccc(CC2CN(C)C(=O)N(c3c(Cl)cccc3Cl)C2)c(C)c1 (configuration not stated)
54 | ≤ 10 | O=C1SCC(Cc2ccc(Cl)cc2Cl)CN1c1c(Cl)cccc1Cl (configuration not stated)
55 | ≤ 10 | O=C(NCc1ccccc1)NCc1ccccc1CC1CCC(=O)N(c2c(Cl)cccc2Cl)C1 (configuration not stated)
56 | ≤ 10 | COC(=O)c1cc(Cl)c(N2CC(Cc3ccc(F)cc3F)CCC2=O)c(Cl)c1 (configuration not stated)
57 | ≤ 10 | CC(=O)Nc1ccc(Cl)c(N2CC(Cc3ccc(F)cc3F)COC2=O)c1Cl (configuration not stated)
58 | ≤ 10 | O=C1CCC(Oc2ccc(Cl)cc2Cl)CN1c1c(Cl)ccnc1Cl (configuration not stated)
59 | ≤ 10 | O=C1CCC(Oc2cccc3ccccc23)CN1c1c(Cl)ccnc1Cl (configuration not stated)
60 | ≤ 10 | CN1CC(Cc2ccc(F)cc2F)CN(c2c(Cl)ccc(N)c2Cl)C1=O (configuration not stated)
61 | ≤ 10 | CS(=O)(=O)Nc1ccc(Cl)c(N2CC(Cc3ccc(F)cc3F)CCC2=O)c1 (configuration not stated)
62 | ≤ 10 | O=C1CCC(Cc2ccc(F)cc2F)CN1c1c(Cl)cnc(O)c1Cl (configuration not stated)
63 | ≤ 10 | CNc1ccc(Cl)c(N2CC(Sc3ccc(F)cc3F)CCC2=O)c1Cl (configuration not stated)
64 | ≤ 10 | O=C1CCC(Oc2ccccc2Cl)CN1C1C(Cl)CCCC1Cl (configuration not stated)
65 | ≤ 10 | Nc1ccc(Cl)c(N2CC(Sc3ccc(F)cc3F)CCC2=O)c1Cl (configuration not stated)
66 | ≤ 10 | Cc1cc(C)cc(OC2CCC(=O)N(c3c(Cl)csc3Cl)C2)c1 (configuration not stated)
67 | ≤ 10 | CC(=O)Nc1ncc(Cl)c(N2CC(Oc3ccc(F)cc3F)CCC2=O)c1Cl (configuration not stated)
68 | ≤ 10 | Nc1cc(Cl)c(N2CC(Oc3ccc(F)cc3F)CCC2=O)c(Cl)n1 (configuration not stated)
69 | ≤ 10 | CNc1cc(Cl)c(N2CC(Cc3ccc(F)cc3F)COC2=O)c(Cl)c1 (configuration not stated)

Row | IC50 [µM] | SMILES
70 | ≤ 10 | O=C(N[C@H]1C[C@H](Cc2ccc(F)cc2F)CN(c2c(Cl)cccc2Cl)C1=O)OCc1ccccc1
71 | ≤ 10 | COc1ccc(SC2CCC(=O)N(c3c(Cl)cccc3Cl)C2)cc1 (configuration not stated)
72 | ≤ 10 | CNc1ccc(Cl)c(N2CC(Cc3ccc(F)cc3F)COC2=O)c1Cl (configuration not stated)
73 | ≤ 10 | O=C(CCCCO)Nc1cc(Cl)c(N2CC(Cc3ccc(F)cc3F)CCC2=O)c(Cl)c1 (configuration not stated)
74 | ≤ 10 | CC(=O)Nc1cnc(Cl)c(N2CC(Sc3ccc(F)cc3F)CCC2=O)c1Cl (configuration not stated)
75 | ≤ 10 | CC(C)(C)OC(=O)N(CCN)c1cc(Cl)c(N2CC(Cc3ccc(F)cc3F)CCC2=O)c(Cl)c1 (configuration not stated)
76 | ≤ 10 | O=C1NCC(Cc2ccc(Cl)cc2)CN1c1c(Cl)cccc1Cl (configuration not stated)
77 | ≤ 10 | N#Cc1ccccc1CC1CCC(=O)N(c2c(Cl)cccc2Cl)C1 (configuration not stated)
78 | ≤ 10 | CC(=O)Nc1cc(Cl)c(N2CC(Cc3ccc(F)cc3F)SCC2=O)c(Cl)c1 (configuration not stated)
79 | ≤ 10 | O=C1CCC(Sc2ccccc2F)CN1c1c(Cl)cccc1Cl (configuration not stated)
80 | ≤ 10 | O=C1SCC(Cc2ccc(F)cc2F)CN1c1c(Cl)cc(CO)cc1Cl (configuration not stated)
81 | ≤ 10 | CC(C)(C)OC(=O)N[C@@H](CO)C(=O)Nc1cc(Cl)c(N2CC(Cc3ccc(F)cc3F)CCC2=O)c(Cl)c1 (some centres not stated)
82 | ≤ 10 | Cc1cc(C)cc(OC2CCC(=O)N(C3C(Cl)CCCC3Cl)C2)c1 (configuration not stated)
83 | ≤ 10 | O=C1CCC(Cc2ccc(F)cc2F)CN1c1c(Cl)cc(NCc2ccccn2)cc1Cl (configuration not stated)
84 | ≤ 10 | CC(=O)Nc1cc(Cl)c(N2CC(Cc3ccc(F)cc3F)OCC2=O)c(Cl)c1 (configuration not stated)
85 | ≤ 10 | O=C1CCC(Cc2ccccc2)CN1c1c(Cl)cncc1Cl (configuration not stated)
86 | ≤ 10 | CC(=O)N1CCC(Nc2cc(Cl)c(N3CC(Cc4ccc(F)cc4F)CCC3=O)c(Cl)c2)CC1 (configuration not stated)
87 | ≤ 10 | O=C1OCC(Cc2ccccc2F)CN1c1c(Cl)cccc1Cl (configuration not stated)
88 | ≤ 10 | O=C1CCC(Cc2ccc(Cl)cc2Cl)CN1c1c(Cl)cncc1Cl (configuration not stated)
89 | ≤ 10 | Cc1ccc(OC2CCC(=O)N(c3c(Cl)csc3Cl)C2)cc1 (configuration not stated)
90 | ≤ 10 | O=C(NCc1ccccc1CC1CCC(=O)N(c2c(Cl)cccc2Cl)C1)Nc1ccccc1C(F)(F)F (configuration not stated)
91 | ≤ 10 | CNc1cc(Cl)c(N2CC(Oc3ccc(F)cc3F)CCC2=O)c(Cl)c1 (configuration not stated)
92 | ≤ 10 | Cc1ccccc1SC1CCC(=O)N(c2c(Cl)csc2Cl)C1 (configuration not stated)

Row | IC50 [µM] | SMILES
93 | ≤ 10 | Nc1ccc(Cl)c(N2CC(Oc3ccc(F)cc3F)CCC2=O)c1Cl (configuration not stated)
94 | ≤ 10 | Nc1cc(Cl)c(N2CC(Cc3ccc(F)cc3F)CSC2=O)c(Cl)c1 (configuration not stated)
95 | ≤ 10 | O=C1CCC(Cc2ccccc2)CN1C1C(Cl)CCCC1Cl (configuration not stated)
96 | ≤ 10 | Nc1ncc(Cl)c(N2CC(Cc3ccc(F)cc3F)CCC2=O)c1Cl (configuration not stated)
97 | ≤ 10 | Cc1cc(/C=C/C(=O)O)cc(C)c1N1CC(Cc2ccc(F)cc2F)CCC1=O (configuration not stated)
98 | ≤ 10 | O=C1CCC(Oc2ccc(F)cc2F)CN1c1c(Cl)cnc(O)c1Cl (configuration not stated)
99 | ≤ 10 | O=C1CCC(Oc2cccc3ccccc23)CN1c1c(Cl)cccc1Cl (configuration not stated)
100 | ≤ 10 | O=C1SCC(Cc2cccc3ccccc23)CN1c1c(Cl)cccc1Cl (configuration not stated)
101 | ≤ 10 | Nc1ccc(Cl)c(N2CC(Cc3ccc(F)cc3F)CNC2=O)c1Cl (configuration not stated)
102 | ≤ 10 | O=C1CCC(Cc2ccccc2F)CN1c1c(Cl)cncc1Cl (configuration not stated)
103 | ≤ 10 | COc1ccccc1CC1CN(c2c(Cl)cccc2Cl)C(=O)CS1 (configuration not stated)
104 | ≤ 10 | C[C@@H]1C[C@H](Cc2ccc(F)cc2F)CN(c2c(Cl)cc(Br)cc2Cl)C1=O
105 | ≤ 10 | Nc1ccc(CC2CCC(=O)N(c3c(Cl)cccc3Cl)C2)cc1 (configuration not stated)
106 | ≤ 10 | Cc1cccc(C)c1N1C[C@@H](N(C)S(=O)(=O)c2ccc(F)cc2F)CCC1=O
107 | ≤ 10 | CN1CC(Cc2ccc(F)cc2F)CN(c2c(Cl)cc(O)cc2Cl)C1=O (configuration not stated)
108 | ≤ 10 | O=C1CCC(Sc2ccc(F)cc2F)CN1C1C(Cl)CC(O)CC1Cl (configuration not stated)
109 | ≤ 10 | O=C1CCC(Oc2ccccc2)CN1c1c(Cl)cncc1Cl (configuration not stated)
110 | ≤ 10 | O=C1OCC(Cc2ccccc2Cl)CN1c1c(Cl)cccc1Cl (configuration not stated)
111 | ≤ 10 | O=C1CCC(Cc2ccc(F)cc2F)CN1C1CCCCC1 (configuration not stated)
112 | ≤ 10 | CS(=O)(=O)Nc1cc(Cl)c(N2CC(Cc3ccc(F)cc3F)CCC2=O)c(Cl)c1 (configuration not stated)
